For one assay, the target named is T1, 5-HT2CR (Homo sapiens, UniProt P28335).
T1 construct: gene HTR2C
T1 sequence (P28335 1-458): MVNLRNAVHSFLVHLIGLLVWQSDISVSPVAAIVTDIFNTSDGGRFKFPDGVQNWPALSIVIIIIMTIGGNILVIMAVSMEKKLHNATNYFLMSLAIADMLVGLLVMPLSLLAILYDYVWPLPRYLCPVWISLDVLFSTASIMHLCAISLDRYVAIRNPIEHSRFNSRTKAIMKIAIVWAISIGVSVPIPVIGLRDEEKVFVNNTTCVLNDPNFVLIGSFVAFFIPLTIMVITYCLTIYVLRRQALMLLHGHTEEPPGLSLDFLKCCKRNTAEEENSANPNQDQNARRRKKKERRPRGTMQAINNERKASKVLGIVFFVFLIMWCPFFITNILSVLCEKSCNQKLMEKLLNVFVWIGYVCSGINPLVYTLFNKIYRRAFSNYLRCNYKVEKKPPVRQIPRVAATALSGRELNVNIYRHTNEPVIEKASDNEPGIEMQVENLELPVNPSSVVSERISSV
Description: biochemical. Also on record: CPM fluorescent dye thermal shift assay on purified receptor, Tm shift versus apo receptor. As to conditions: single replicate of two; for ΔTm (°C): 100 µM, binder. The method, then:
The thermal shift assay using a CPM fluorescent dye (Sigma) was performed as described in the literature.[27] […] The protein sample was heated step-wise on a Rotor-Gene Thermo-optical Analyzer (QIAGEN Gmbh) from 25 °C to 95 °C. Upon temperature rise, the proteins unfolded and cysteine residues were exposed to form adducts with CPM, which were detected by fluorescence at 387/463 nm using an EnVision multilabel plate reader (PerkinElmer). From the normalized thermal stability curve, melting temperatures (Tm) were obtained by fitting the curve with a Boltzmann sigmoidal function using GraphPad Prism. Comparison of Tm for the apo receptor and receptor incubated with a compound gave rise to Tm shift (ΔTm) for the compound. Using stringent data processing criteria for compound annotation and hit selection (see ESI ^†), we identified a total of 23 initial hits from screening the 9 cocktails (Fig. 2, full data set in Table S1 ^†). Twelve were well characterized antagonists for 5-HT2CR or a closely-related subfamily member 5-HT2AR with a mean BI of 2.16 to 9.71 (full data set in Table S2 ^†). […] While their IC50 or Ki values from the ChEMBL database were all above 10 nM, 85% had IC50 or Ki > 100 nM towards 5-HT2CR. Therefore, the stringent BI cut-off defined for hit selection ensured identification of highest affinity ligands with a minimal false-positive rate. To verify the 11 initial hits with no documented binding to the 5-HT2 receptor family, a simple mixture was created by pooling and incubating them with the receptor-expressing membranes. Four hits were verified in this secondary affinity MS assay (Fig. 3a). Those that were invalidated could have resulted from compound misidentification or altered binding properties in the original complex mixtures. […] The radioligand competition assay verified potent antagonist binding of 3943 to all three 5-HT2 receptor subtypes in the nanomolar range, with stronger affinity to 5-HT2A/2BR than 5-HT2CR (Fig. 3c, S3b ^†). It was not surprising to identify a new antagonist against three 5-HT2 receptor subfamily members using our approach because of the high sequence homology and very similar ligand binding pockets among them.

Assay [1] has as its target T2, glucagon-like peptide-1 receptor (GLP-1R) (Homo sapiens, UniProt P43220, DEL258-263).
T2 construct: gene GLP1R; TMD residues 128–431 with intracellular loop 2 (258–263) replaced by rubredoxin, N-terminal BRIL
T2 sequence (P43220 128-257): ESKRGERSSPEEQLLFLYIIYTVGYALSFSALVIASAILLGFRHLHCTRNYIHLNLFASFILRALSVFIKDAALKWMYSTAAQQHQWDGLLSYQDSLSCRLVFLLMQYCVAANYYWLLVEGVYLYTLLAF
T2 sequence (P43220 264-431): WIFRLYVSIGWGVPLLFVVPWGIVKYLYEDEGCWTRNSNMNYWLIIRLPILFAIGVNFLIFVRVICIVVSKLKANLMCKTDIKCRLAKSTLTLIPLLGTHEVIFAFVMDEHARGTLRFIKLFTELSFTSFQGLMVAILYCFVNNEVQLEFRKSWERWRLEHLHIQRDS
Nature of the assay: affinity MS on receptor-expressing membranes, binding index vs rhodopsin control.

The structures appear in SMILES notation. Several values for one entry are separate records, joined by “and”; a condition that tells them apart may be missing. Identical values can stand only once.

Regarding `C1=Cc2ccccc2C(=C2CCN(CCCCc3nn[nH]n3)CC2)c2ccccc21` [compound 3943, AT-56], at 5-HT2CR, the ΔTm at 100 µM turned out to be 6.2 °C and the “ΔTm (°C)” value stood at 6.9 °C. For the compound `CC(C)c1nc(CN(C)C(=O)N[C@H](C(=O)N[C@@H](Cc2ccccc2)C[C@H](O)[C@H](Cc2ccccc2)NC(=O)OCc2cncs2)C(C)C)cs1` [compound 462, Ritonavir], the ΔTm at 100 µM at 5-HT2CR was 0.2 °C.

For the compound `CS(=O)(=O)c1cccc(NC(=O)N(Cc2ccc(C(=O)Nc3nnn[nH]3)cc2)c2ccc(C3CCCCC3)cc2)c1` [NNC0640], the “affinity MS on receptor-expressing membranes, binding index vs rhodopsin control” value in assay [1] is on record as 3.31 binding index (ratio). Take `C[C@@H]1CN(c2c(F)c(F)c3c(=O)c(C(=O)O)cn(C4CC4)c3c2F)C[C@H](C)N1` [compound 1382, Orbifloxacin]: the ΔTm at 100 µM at 5-HT2CR turned out to be 2 °C. For `CC1(C)CC([C@@H](Nc2ccc(-n3cnc(C(F)(F)F)c3)nc2)c2ccc(C(=O)NCCC(=O)O)cc2)C1` [PF06372222], in assay [1], the “affinity MS on receptor-expressing membranes, binding index vs rhodopsin control” value is listed as 16.66 binding index (ratio). Turning to `O=C(NC1CCNCC1)c1n[nH]cc1NC(=O)c1c(Cl)cccc1Cl` [compound 3931, AT 7519], the “ΔTm (°C)” value at 5-HT2CR is -3.0 °C and -0.2 °C.

Usually ΔTm stands for the change in melting temperature against a reference sample.

The values are drawn from publication PMC5916221, “High-throughput identification of G protein-coupled receptor modulators through affinity mass spectrometry screening” (Chemical Science, 2018).
